According to patent publication US5523403A, “Tropone-substituted phenyloxazolidinone antibacterial agents” (The Upjohn Company, priority 1995, dated 1996):
Converted amounts (≈) assume the structure as drawn.

Legend:
[1] = tested on: Staphylococcus aureus UC ® 9213; experiment: in vitro antibacterial activity, Minimum Inhibitory Concentration, Staphylococcus aureus; details: Staphylococcus aureus, UC9213, read-out: Minimum Inhibitory Concentration
[2] = tested on: Streptococcus pyogenes UC ® 152; experiment: in vitro antibacterial activity, Minimum Inhibitory Concentration, Streptococcus pyogenes; details: Streptococcus pyogenes, UC152, read-out: Minimum Inhibitory Concentration

Structure (SMILES) | MIC [1] | MIC [2]
COc1cc(-c2ccc(N3CC(CNC(C)=O)OC3=O)cc2)cccc1=O (racemic) [Compound 21, (±)-N-[[3-[4-(6-methoxy-5-oxo-1,3,6-cycloheptatrien-1-yl]phenyl]-2-oxo5-oxazolidinyl]methyl]-acetamide] | 64 µg/mL (≈ 174 µM) | 8 µg/mL (≈ 21.7 µM)
CC(=O)NCC1CN(c2ccc(-c3ccc(N4CCNCC4)c(=O)cc3)cc2)C(=O)O1 (racemic) [Compound 12, (±)-N-[[3-[4-[4-(1-piperazinyl)-5-oxo-1,3,6-cycloheptatrien-1-yl]phenyl]-2-oxo-5-oxazolidinyl]methyl]-acetamide] | 8 µg/mL (≈ 18.9 µM) | 0.25 µg/mL (≈ 0.592 µM)
CC(=O)NCC1CN(c2ccc(-c3ccc(NCCO)c(=O)cc3)cc2)C(=O)O1 (racemic) [Compound 4, (±)-N-[[3-[4-[4-[(2-hydroxyethyl)amino]-5-oxo1,3,6-cycloheptatrien-1-yl]phenyl]-2oxo-5-oxazolidinyl]methyl-acetamide] | 4 µg/mL (≈ 10.1 µM) | 0.5 µg/mL (≈ 1.26 µM)

Results, then the compound that gave them:

MIC [1] | MIC [2] | Structure (SMILES)
4 µg/mL (≈ 9.7 µM) | 1 µg/mL (≈ 2.42 µM) | COCCOc1ccc(-c2ccc(N3CC(CNC(C)=O)OC3=O)cc2)ccc1=O (racemic) [Compound 35, (±)-N-[[3-[4-[4-(2-methoxyethoxy)-5-oxo-1,3,6cycloheptatrien1-yl]phenyl)-2-oxo-5-oxazolidinyl]methyl]-acetamide]
2 µg/mL (≈ 4.72 µM) | 0.5 µg/mL (≈ 1.18 µM) | CC(=O)NC[C@H]1CN(c2ccc(-c3ccc(N4CCOCC4)c(=O)cc3)cc2)C(=O)O1 [Compound 25, (S)-N-[[3-[4[4-(4-morpholino)-5-oxo-1,3,6-cycloheptatrien-1-yl]phenyl]-2-oxo-5-oxazolidinyl]methyl]-acetamide]
